The target of the experiment is T1, ovine COX2 (Ovis aries, UniProt P79208).
T1 sequence (P79208 17-603): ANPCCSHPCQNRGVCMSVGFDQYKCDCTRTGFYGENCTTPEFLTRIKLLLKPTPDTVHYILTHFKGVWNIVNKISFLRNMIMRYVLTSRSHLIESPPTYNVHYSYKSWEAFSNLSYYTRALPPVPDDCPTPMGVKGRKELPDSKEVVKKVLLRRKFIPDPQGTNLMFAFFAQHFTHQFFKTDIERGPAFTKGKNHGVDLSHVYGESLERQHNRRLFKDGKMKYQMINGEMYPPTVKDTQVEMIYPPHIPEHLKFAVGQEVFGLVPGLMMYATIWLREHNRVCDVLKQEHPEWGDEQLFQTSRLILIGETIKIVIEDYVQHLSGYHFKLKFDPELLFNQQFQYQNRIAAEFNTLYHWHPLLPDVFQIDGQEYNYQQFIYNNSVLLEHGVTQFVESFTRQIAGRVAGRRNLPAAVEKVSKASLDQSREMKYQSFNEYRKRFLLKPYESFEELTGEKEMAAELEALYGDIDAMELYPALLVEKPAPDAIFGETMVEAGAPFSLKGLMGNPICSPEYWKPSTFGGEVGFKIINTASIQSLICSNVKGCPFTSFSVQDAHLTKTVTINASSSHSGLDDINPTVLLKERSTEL
Briefly: IC50 assay, Cayman colorimetric COX inhibitor screening assay kit. The conditions noted are these: FIG. 2, 10 duplicate concentrations.

Description: Various concentrations of the ^19F-COX2 compound ranging from 0.1 μM to 0.3 nM were dispensed into designated wells within a 96-well microtiter plate at a final volume of 220 μL per well. Each well contained an assay buffer, heme, and ovine COX2 provided in Cayman's colorimetric COX inhibitor screening assay kit. […] Five minutes after incubation of all assay components at 25° C., an arachidonic acid substrate at a final concentration of 100 μM and the colorimetric co-substrate N,N,N′,N′-tetramethyl-p-phenylenediamine were added to each well. The plate was then incubated at 25° C. for an additional 5 min before reading the absorbance at 590 nm using a plate reader. Absorbance of the duplicate assay of each well was averaged and subtracted from the 100% initial activity sample, after which it was divided by the 100% initial activity sample and multiplied by 100 to arrive at the percentage of inhibition.

With `Cc1csc(Cc2c3cccccc-3c(C(=O)c3ccc(F)cc3)c2C)n1` [^19F-COX2], the “Hill slope of the inhibition curve” value is recorded as −0.62.

The values are drawn from patent US9266847B2, “Compounds, probes, and methods of synthesis and methods of imaging COX-2-associated diseases” (Vanderbilt University, priority 2012, dated 2016).
